From PubChem BioAssay AID248 (DTP/NCI, 2004)
“And” between values parts separate entries of the source, which are not always exact repeats. Equal entries are not always repeated. Toxic doses and inconclusive results are not listed.

System: L1210 leukemia ip in BDF1 mice, survival T/C
Assay: NCI In Vivo Anticancer Drug Screen. Data for tumor model L1210 Leukemia (intraperitoneal) in B6D2F1 (BDF1) mice
Conditions: endpoint: mean survival time, higher = longer survival
Procedure, shortened: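 Ratio derived from survival: compound-dosed mice over vehicle-dosed mice, all bearing a transplantable tumor.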

[1] = dose: 100.0 mg/kg/injection, schedule: Q04DX002 (ip), vehicle: Klucel (hydroxypropylcellulose) (HPC)
[2] = dose: 200.0 mg/kg/injection, schedule: Q04DX002 (ip), vehicle: Klucel (hydroxypropylcellulose) (HPC)
[3] = dose: 400.0 mg/kg/injection, schedule: Q04DX002 (ip), vehicle: Klucel (hydroxypropylcellulose) (HPC)
[4] = dose: 6.25 mg/kg/injection, schedule: Q04DX003 (ip), vehicle: saline
[5] = dose: 100.0 mg/kg/injection, schedule: Q04DX003 (ip), vehicle: Klucel (hydroxypropylcellulose) (HPC)
[6] = dose: 200.0 mg/kg/injection, schedule: Q04DX003 (ip), vehicle: Klucel (hydroxypropylcellulose) (HPC)
[7] = dose: 400.0 mg/kg/injection, schedule: Q04DX003 (ip), vehicle: Klucel (hydroxypropylcellulose) (HPC)
[8] = dose: 100.0 mg/kg/injection, schedule: Q01DX001 (ip), vehicle: saline
[9] = dose: 200.0 mg/kg/injection, schedule: Q01DX001 (ip), vehicle: saline
[10] = dose: 400.0 mg/kg/injection, schedule: Q01DX001 (ip), vehicle: saline
[11] = dose: 25.0 mg/kg/injection, schedule: Q04DX003 (ip), vehicle: Klucel (hydroxypropylcellulose) (HPC)
[12] = dose: 50.0 mg/kg/injection, schedule: Q04DX003 (ip), vehicle: Klucel (hydroxypropylcellulose) (HPC)
[13] = dose: 100.0 mg/kg/injection, schedule: Q04DX002 (ip), vehicle: saline
[14] = dose: 200.0 mg/kg/injection, schedule: Q04DX002 (ip), vehicle: saline
[15] = dose: 50.0 mg/kg/injection, schedule: Q01DX009 (ip), vehicle: saline with Tween-80
[16] = dose: 100.0 mg/kg/injection, schedule: Q01DX009 (ip), vehicle: saline with Tween-80
[17] = dose: 100.0 mg/kg/injection, schedule: Q04DX003 (ip), vehicle: saline with Tween-80
[18] = dose: 100.0 mg/kg/injection, schedule: Q01DX009 (ip), vehicle: Klucel (hydroxypropylcellulose) (HPC)
[19] = dose: 200.0 mg/kg/injection, schedule: Q01DX009 (ip), vehicle: Klucel (hydroxypropylcellulose) (HPC)
[20] = dose: 400.0 mg/kg/injection, schedule: Q01DX009 (ip), vehicle: Klucel (hydroxypropylcellulose) (HPC)

For `CN1C2CCC1C(O)C(c1ccccc1)C2` (stereo unspecified), the T/C (dose: 10.0 mg/kg/injection, schedule: Q01DX001 (ip), vehicle: saline) was 106 % of control, the T/C (dose: 20.0 mg/kg/injection, schedule: Q01DX001 (ip), vehicle: saline) was 101 % of control and the T/C (dose: 40.0 mg/kg/injection, schedule: Q01DX001 (ip), vehicle: saline) was 106 % of control.
`O=P(c1ccccc1)(N1CC1)N1CC1` was tested, and the T/C (dose: 7.5 mg/kg/injection, schedule: Q04DX003 (ip), vehicle: saline) was 100 % of control, the T/C (dose: 15.0 mg/kg/injection, schedule: Q01DX001 (ip), vehicle: saline) was 102 % of control and the T/C (dose: 15.0 mg/kg/injection, schedule: Q04DX003 (ip), vehicle: saline) was 95 % of control. The T/C (dose: 30.0 mg/kg/injection, schedule: Q01DX001 (ip), vehicle: saline) was 107 % of control and the T/C (dose: 30.0 mg/kg/injection, schedule: Q04DX003 (ip), vehicle: saline) was 98 % of control.
With `Cc1ccc(C)c(NC(=O)NC(C)(C)C)c1` the T/C [1] was 105 % of control, the T/C [2] was 102 % of control and the T/C [3] was 117 % of control.
`CC[N+](C)(CC)CCC[n+]1c(-c2ccccc2)c2cc(N)ccc2c2ccc(N)cc21` was tested, and the T/C (dose: 1.56 mg/kg/injection, schedule: Q01DX009 (ip), vehicle: saline) was 104 % of control, the T/C (dose: 1.56 mg/kg/injection, schedule: Q04DX003 (ip), vehicle: saline) was 100 % of control and the T/C (dose: 3.12 mg/kg/injection, schedule: Q01DX009 (ip), vehicle: saline) was 109 % of control and 110 % of control. For the same compound, the T/C (dose: 3.12 mg/kg/injection, schedule: Q04DX003 (ip), vehicle: saline) was 109 % of control, the T/C (dose: 6.25 mg/kg/injection, schedule: Q01DX009 (ip), vehicle: saline) was 100 % of control and 110 % of control and the T/C [4] was 112 % of control. The T/C (dose: 6.25 mg/kg/injection, schedule: Q04DX003 (ip), vehicle: water) was 98 % of control and the T/C (dose: 12.5 mg/kg/injection, schedule: Q04DX003 (ip), vehicle: water) was 93 % of control.
`O=C(O)COc1ccccc1Cl` was tested, and the T/C [5] was 105 % of control, the T/C [6] was 104 % of control and the T/C [7] was 107 % of control.
`Cc1c2cnccc2c(C)c2c1c1ccccc1n2CCCN` was tested, and the T/C [4] was 97 % of control, the T/C (dose: 12.5 mg/kg/injection, schedule: Q04DX003 (ip), vehicle: saline) was 97 % of control and the T/C (dose: 25.0 mg/kg/injection, schedule: Q01DX001 (oral), vehicle: saline) was 96 % of control. The T/C (dose: 25.0 mg/kg/injection, schedule: Q04DX003 (ip), vehicle: saline) was 89 % of control, the T/C (dose: 50.0 mg/kg/injection, schedule: Q01DX001 (oral), vehicle: saline) was 100 % of control and the T/C (dose: 75.0 mg/kg/injection, schedule: Q01DX001 (oral), vehicle: saline) was 105 % of control. The T/C (dose: 100.0 mg/kg/injection, schedule: Q01DX001 (oral), vehicle: saline) was 86 % of control and the T/C (dose: 200.0 mg/kg/injection, schedule: Q01DX001 (oral), vehicle: saline) was 96 % of control.
`Cc1cc(Cl)nc2ccc(Cc3ccc(Cl)cc3)cc12` was tested, and the T/C [8] was 97 % of control, the T/C [9] was 92 % of control and the T/C [10] was 93 % of control.
With `CCCCCCCCCCCCCCCCCCS(=O)(=O)CCCl` the T/C [11] was 107 % of control, the T/C [12] was 100 % of control and the T/C [5] was 96 % of control. For the same compound, the T/C [6] was 93 % of control and the T/C [7] was 91 % of control.
`Cc1ccc([N+](=O)[O-])cc1NC(=O)Sc1ccc(C(C)(C)C)cc1C` was tested, and the T/C [13] was 101 % of control, the T/C [14] was 88 % of control and the T/C (dose: 400.0 mg/kg/injection, schedule: Q04DX002 (ip), vehicle: saline) was 101 % of control.
For `CCOC(=O)C1(C(C)C)OC2(O)CCCCCN2C1=O` (stereo unspecified), the T/C (dose: 50.0 mg/kg/injection, schedule: Q01DX009 (ip), vehicle: saline) was 95 % of control, the T/C (dose: 100.0 mg/kg/injection, schedule: Q01DX009 (ip), vehicle: saline) was 100 % of control and the T/C [13] was 89 % of control. The T/C (dose: 200.0 mg/kg/injection, schedule: Q01DX009 (ip), vehicle: saline) was 95 % of control and the T/C [14] was 92 % of control.
`CCCCCCCCCCCCCCCCc1ccc(O)cc1O` was tested, and the T/C (dose: 12.5 mg/kg/injection, schedule: Q04DX003 (ip), vehicle: Klucel (hydroxypropylcellulose) (HPC)) was 103 % of control, the T/C (dose: 25.0 mg/kg/injection, schedule: Q01DX009 (ip), vehicle: saline with Tween-80) was 100 % of control and the T/C [11] was 95 % of control. The T/C [15] was 105 % of control, the T/C [12] was 95 % of control and the T/C [16] was 95 % of control. The T/C [17] was 94 % of control.
In the case of `CB1N(c2ccccc2)B(C)N(c2ccccc2)B(C)N1c1ccccc1`, the T/C [5] is reported as 103 % of control, the T/C [6] is reported as 93 % of control and the T/C [7] is reported as 97 % of control.
With `C/C=C/C=C/CC` the T/C [8] was 109 % of control, the T/C [9] was 102 % of control and the T/C [10] was 109 % of control.
With `Cn1cnc([N+](=O)[O-])c1Sc1ncnc2nc[nH]c12` the T/C (dose: 8.0 mg/kg/injection, schedule: Q01DX Z (ip), vehicle: methylcellulose (MC)) was 109 % of control, the T/C (dose: 12.0 mg/kg/injection, schedule: Q01DX Z (ip), vehicle: methylcellulose (MC)) was 112 % of control and the T/C (dose: 17.0 mg/kg/injection, schedule: Q01DX Z (ip), vehicle: methylcellulose (MC)) was 117 % of control. For the same compound, the T/C (dose: 25.0 mg/kg/injection, schedule: Q01DX Z (ip), vehicle: methylcellulose (MC)) was 104 % of control, the T/C (dose: 62.0 mg/kg/injection, schedule: Q01DX001 (ip), vehicle: carboxymethylcellulose (CMC)) was 124 % of control and the T/C (dose: 250.0 mg/kg/injection, schedule: Q01DX001 (ip), vehicle: carboxymethylcellulose (CMC)) was 150 % of control. For the same compound, the T/C (dose: 500.0 mg/kg/injection, schedule: Q01DX001 (ip), vehicle: carboxymethylcellulose (CMC)) was 165 % of control.
For `NOCc1cc2c(cc1Cl)OCO2`, the T/C (dose: 100.0 mg/kg/injection, schedule: Q01DX001 (ip), vehicle: Klucel (hydroxypropylcellulose) (HPC)) was 94 % of control, the T/C [18] was 94 % of control and the T/C [5] was 90 % of control. The T/C (dose: 200.0 mg/kg/injection, schedule: Q01DX001 (ip), vehicle: Klucel (hydroxypropylcellulose) (HPC)) was 88 % of control, the T/C [19] was 92 % of control and the T/C [6] was 96 % of control. The T/C (dose: 400.0 mg/kg/injection, schedule: Q01DX001 (ip), vehicle: Klucel (hydroxypropylcellulose) (HPC)) was 100 % of control, the T/C [20] was 86 % of control and the T/C [7] was 96 % of control.
In the case of `Cc1cccc(C)c1N=C=O`, the T/C (dose: 100.0 mg/kg/injection, schedule: Q01DX009 (ip), vehicle: other) is reported as 93 % of control, the T/C [17] is reported as 105 % of control and the T/C (dose: 200.0 mg/kg/injection, schedule: Q01DX009 (ip), vehicle: other) is reported as 106 % of control. The T/C (dose: 200.0 mg/kg/injection, schedule: Q04DX003 (ip), vehicle: saline with Tween-80) was 100 % of control and the T/C (dose: 400.0 mg/kg/injection, schedule: Q04DX003 (ip), vehicle: saline with Tween-80) was 109 % of control.
For `C=C1Sc2ccccc2N1C`, the T/C (dose: 6.25 mg/kg/injection, schedule: Q01DX015 (ip), vehicle: saline) was 97 % of control, the T/C (dose: 12.5 mg/kg/injection, schedule: Q01DX015 (ip), vehicle: saline) was 97 % of control and the T/C (dose: 25.0 mg/kg/injection, schedule: Q01DX015 (ip), vehicle: saline) was 95 % of control. For the same compound, the T/C (dose: 50.0 mg/kg/injection, schedule: Q01DX015 (ip), vehicle: saline) was 91 % of control.
`COC1COC(OC)C(OC)C1OC` (stereo unspecified) was tested, and the T/C (dose: 25.0 mg/kg/injection, schedule: Q04DX002 (ip), vehicle: saline) was 87 % of control, the T/C (dose: 50.0 mg/kg/injection, schedule: Q04DX002 (ip), vehicle: saline) was 104 % of control and the T/C [13] was 90 % of control.
In the case of `CC(=O)N(N=Nc1ccc(Cl)cc1)c1ccc(Cl)cc1`, the T/C [15] is reported as 98 % of control, the T/C [16] is reported as 98 % of control and the T/C (dose: 200.0 mg/kg/injection, schedule: Q01DX009 (ip), vehicle: saline with Tween-80) is reported as 98 % of control.
`Cc1nc(N)[nH]c(=O)c1CCCN=Cc1ccccc1` was tested, and the T/C [18] was 101 % of control, the T/C [19] was 92 % of control and the T/C [20] was 95 % of control.
In the case of `O=C1OCC/C1=C/OCCCCCO/C=C1/CCOC1=O`, the T/C [1] is reported as 106 % of control, the T/C [2] is reported as 97 % of control and the T/C [3] is reported as 90 % of control.
